According to ChEMBL document CHEMBL1240518, “Replacement of the Lys linker with an Arg linker resulting in improved melanoma uptake and reduced renal uptake of Tc-99m-labeled Arg-Gly-Asp-conjugated alpha-melanocyte stimulating hormone hybrid peptide” (Bioorg Med Chem, 2010):
Residues, ends and D or L forms follow the SMILES beside them.

Assay: Cytotoxicity against mouse B16-F1 cells assessed as reduction of cell survival after 3 hrs by clonogenic assay relative to control

## N=C(N)NCCC[C@@H]1NC(=O)CNC(=O)[C@H](CC(=O)O)NC(=O)[C@H](Cc2ccc(O)cc2)NC(=O)[C@H](CC(=O)O)NC1=O (cyclo(DGRDY))
  Activity: 7%
